Laboratory results as given in US7939564B2, “Combination with bis(thiohydrazide amides) for treating cancer” (Synta Pharmaceuticals Corp., priority 2006, dated 2011).
Where “and” joins values, the source holds several entries; their conditions need not be identical. Identical values can stand only once. Entries after “also recorded” stand apart in the source; their conditions may differ. Like-named read-outs stand apart in the source and are kept apart here.

Columns and labels:
Hsp70 = Hsp70 induction by Compound 1 in cells pre-treated with Tiron; type: cell-based; conditions: Ramos cells pre-treated with 500 mM Tiron 1 hour prior to Compound 1 0.5 μM for 24 hours
Ramos cells = test: ROS generation in drug-treated cells, carboxy-H2DCFDA probe, flow cytometry; type: cell-based; conditions: for blocking of the ROS generation induced by Compound 1: Ramos cells pre-treated 1 hour (NAC 1.0 mM or 10 mM; Tiron 500 mM) prior to Compound 1 0.5 μM for 24 hours
Method: In these experiments, we monitored the production of ROS using the cell permeable Carboxy-H2DCFDA probe. When this probe is oxidized by ROS, it emits a green fluorescence that can be detected using flow cytometry or fluorescent microscopy. Ramos cells were treated with Compound 1 (0.5 μM) for 24 hours or pre-treated with 1.0 mM or 10 mM NAC for 1 hour prior to addition of Compound 1 was then washed gently once with warm HBSS/Ca/Mg (GIBCO.14025). 25 μM carboxy-H2DCFDA (Invitrogen. C400) working solution was added to cover the cells, and the cells were incubated for 30 minutes at 37° C., protected from light. The cells were gently washed three times in warm HBSS/Ca/Mg. ROS levels, as determined by fluorescence intensity, were determined by flow cytometry (excitation at 495 nm, emission at 529 nm).
Tiron is a direct scavenger of ROS and is a potent inhibitor of oxidative stress. Ramos cells were pre-treated with 500 mM Tiron 1 hour prior to addition of Compound 1 (0.5 μM) for 24 hours, then measurement of ROS levels was performed as in Example 3.

melanoma = conditions: other currently used treatments for melanoma, cited from earlier work
[1] = system: RERF-LC-AI^IVP human lung tumor cells; test: Nude mouse xenograft study with fractionated ionizing radiation; type: in vivo
Method: Cells that had been cryopreserved in liquid nitrogen were rapidly thawed at 37° C. and transferred to a tissue culture flask containing growth media and then incubated at 37° C. in a 5% CO2 incubator. […] Cultures were passaged by washing with 10 mL of room temperature phosphate buffered saline (PBS) and then disassociating cells by adding 5 mL 1× trypsin-EDTA and incubating at 37° C. until the cells detached from the surface of the flask. To inactivate the trypsin, 5 mL of growth media was added and then the contents of the flask were centrifuged to pellet the cells. The supernatant was aspirated and the cell pellet was resuspended in 10 mL of growth media and the cell number determined using a hemocytometer.
Animals were housed 4-5/cage in micro-isolators, with a 12 hr/12 hr light/dark cycle, acclimated for at least 1 week prior to use and fed normal laboratory chow ad libitum.

[2] = RECIST, Efficacy Sample (n = 50 combination, n = 27 Paclitaxel)
[3] = Tables 3 and 4, lines of the applicant's own trial

Method for Stage 1V melanoma: A total of 81 people with Stage 1V melanoma were tested in a randomized trial with ratios of 2:1, compound (I)+paclitaxel (53 people): paclitaxel alone (28 people). The dosages administered were 213 mg/m^2 compound (I), 80 mg/m^2 paclitaxel, and the dosage regimen was 3 weekly doses per each 4 week cycle. Patients were treated until progression of the disease. Patients who progressed on paclitaxel alone were given the option to crossover to compound (I)+paclitaxel and were treated until progression. The tumor assessments were performed at baseline, Cycle 2, and every other Cycle thereafter.

Structure (SMILES): O=S(=O)(O)c1cc(O)c(O)c(S(=O)(=O)O)c1 [Tiron]
- blocking of the Hsp70 induction by Compound 1 (Hsp70): blocked; also recorded: blocks the induction of Hsp70
- blocking of the ROS generation induced by Compound 1 (Ramos cells): blocked the ability of Compound 1 to generate ROS; also recorded: block the production of reactive oxygen species

Structure (SMILES): CCOP(=O)(OCC)C(C)NC(=O)N(CCCl)N=O (stereo not drawn) [Fotemustine]
- OR (%) (melanoma): 15.2%
- Survival (months) (melanoma): 7.3 months
- TTP (melanoma): 55 days

Structure (SMILES): CNC(=O)c1cc(Oc2ccc(NC(=O)Nc3ccc(Cl)c(C(F)(F)F)c3)cc2)ccn1 [Sorafenib]
- PR (%) (melanoma): 2.6%

Structure (SMILES): CC/C(=C(\c1ccccc1)c1ccc(OCCN(C)C)cc1)c1ccccc1 [Tamoxifen]
- CR (%) (melanoma): 1%
- OR (%) (melanoma): 4.9%
- PR (%) (melanoma): 3.9%

Structure (SMILES): CN(NC(=O)CC(=O)NN(C)C(=S)c1ccccc1)C(=S)c1ccccc1 [Compound (1)]
- % T/C ([1]; 100 mg/kg Compound 1 5 times per week combined with 0.5 Gy radiation 3 times per week, dosed 420 minutes after irradiation): 47
- toxicity of the combination treatment ([1]; 100 mg/kg Compound 1 combined with 0.5 Gy radiation, Nude mice): not associated with excessive toxicity
- % T/C ([1]; 100 mg/kg Compound 1 i.v. 5 times per week, 15 doses, alone (mock irradiation)): 112
- earliest time at which induction of ROS was observed (Ramos cells; Ramos cells, Compound 1): ≤ 3 h
- generation of ROS in drug-treated cells (Ramos cells; Ramos cells, Compound 1 0.5 μM, 24 hours, versus DMSO): induced the generation of ROS; also recorded: emit more reactive oxygen species than cells treated with DMSO alone

Structure (SMILES): CC(=O)N[C@@H](CS)C(=O)O [NAC]
- blocking of the ROS generation induced by Compound 1 (Ramos cells): almost completely blocked the generation of ROS; also recorded: can be blocked; also recorded: block the production of reactive oxygen species

Structure (SMILES): CC(=O)O[C@H]1C(=O)[C@@]2(C)[C@H]([C@H](OC(=O)c3ccccc3)[C@]3(O)C[C@H](OC(=O)[C@H](O)[C@@H](NC(=O)c4ccccc4)c4ccccc4)C(C)=C1C3(C)C)[C@]1(OC(C)=O)CO[C@@H]1C[C@@H]2O [Paclitaxel]
- Time to Progression (days), 25th percentile (Stage 1V melanoma; Kaplan-Meier estimate, Efficacy Sample, 213 mg/m^2 compound (I), 80 mg/m^2 paclitaxel, 3 weekly doses per 4 week cycle): 49.0 days
- Time to Progression (days), 75th percentile (Stage 1V melanoma; Kaplan-Meier estimate, Efficacy Sample, same regimen): 106.0 days
- Time to Progression (days), Median (Stage 1V melanoma; Kaplan-Meier estimate, Efficacy Sample, same regimen, log-rank p-value 0.017): 56.0 days
- Best Overall Response: Partial Response (PR), percent of patients (Stage 1V melanoma; RECIST, Efficacy Sample): (3.7%)
- Best Overall Response: Progressive Disease (PD), percent of patients (Stage 1V melanoma; RECIST, Efficacy Sample): (59.3%)
- Best Overall Response: Complete Response (CR), number of patients (Stage 1V melanoma; [2]): 0
- Best Overall Response: Partial Response (PR), number of patients (Stage 1V melanoma; [2]): 1
- Best Overall Response: Progressive Disease (PD), number of patients (Stage 1V melanoma; [2]): 16
- Best Overall Response: Stable Disease (SD), number of patients (Stage 1V melanoma; [2]): 10
- CR + PR (Stage 1V melanoma; RECIST, Efficacy Sample, Two-Sided Fisher's Exact Test p-value 0.149): 3.7%
- CR (%) (Stage 1V melanoma; [3]): 0%
- OR (%) (Stage 1V melanoma; [3]): 3.7%
- PR (%) (Stage 1V melanoma; [3]): 3.7%
- TTP (Stage 1V melanoma; [3]): 57 days
- OR (%) (melanoma; listed as Paclitaxel (Taxol)): 12% and 17.8%
